A short description of this data set: Example 7: food effect on pharmacokinetics of Compound 1 in healthy Japanese males. Format: in vivo. The note with it: male, human, plasma, po, 400 mg, single oral dose 400 mg, Mean ± SD (n = 6); for half-life: read-out: t1/2 λz (converted). Here is the method: Subjects in the 400 mg fasted cohort received an additional 400 mg dose with breakfast after a washout period (generally a minimum of ten days after the initial administration). The interval of ten days between the two doses was considered appropriate for eliminating any within-subject carryover effects. […] Doses were administered at similar times for each subject in each treatment period. […] Plasma samples were isolated from healthy subjects administered with Compound 1. The plasma samples were extracted by solid phase extraction using Empore™ Disk Plate (C8SD), and then measured by high-performance liquid chromatography/tandem mass spectrometry (LC/MS/MS) (HPLC model 2795 separations module from Waters; mass spectrometer model AP14000 from MDS SCIEX). Ionization and detection were performed with electrospray ionization and positive ion detection with multiple reaction monitoring, respectively. […] To 50 μL of plasma samples spiked with […] each of 90% acetonitrile and 20 mmol/L ammonium formate-formic acid buffer (pH 3.0)/acetonitrile (10:90, v/v), 10 μL each of internal standard solution was added. To these samples, 200 μL of 0.1% formic acid in 10% acetonitrile was added. These solutions were then mixed for 10 seconds and centrifuged at 10,000 rpm for 5 minutes at 4° C. A 250 μL aliquot of the supernatant was added to a Empore™ Disk Plate (C8SD) (conditioned with 150 μL of acetonitrile and 200 μL of 0.1% formic acid in this order). The plate was washed twice with 200 μL of 0.1% formic acid in 20% acetonitrile and eluted twice with 100 μL of 0.1% formic acid in 80% acetonitrile (200 μL in total). To the eluates, 200 μL of 0.1% formic acid was added and mixed. Then, 10 μL of each solution was injected into the LC/MS/MS system and analyzed.

These results are taken from US20070219243A1, “Method for improving the pharmacokinetics of HIV integrase inhibitors” (priority 2005, published 2007).

SMILES strings stand for the structures. Like-named read-outs stand apart in the source and are kept apart here.

Turning to `COc1cc2c(cc1Cc1cccc(Cl)c1F)c(=O)c(C(=O)O)cn2[C@H](CO)C(C)C` [Compound 1, 6-(3-chloro-2-fluorobenzyl)-1-[(2S)-1-hydroxy-3-methylbutan-2-yl]-7-methoxy-4-oxo-1,4-dihydroquinoline-3-carboxylic acid], for the setting “Fasted”, the AUC(0-inf) worked out at 1.45 ± 0.308 µg·h/mL, the Cmax worked out at 0.264 ± 0.078 µg/mL, the Tmax was determined as 2.5 ± 1.2 h and the half-life was 5.4 ± 1 h. Moreover, for the setting “Fed”, the AUC(0-inf) stood at 3.94 ± 1.07 µg·h/mL, the Cmax is 0.903 ± 0.391 µg/mL, the Tmax came to 2.3 ± 1 h and the half-life is 3.2 ± 0.3 h.
